In US11498923B2 (Merck Sharp & Dohme Corp., priority 2017, dated 2022):
pKi: −log10 of the molar value.

target: T1, human A2a receptor (Homo sapiens, UniProt P29274); assay: A2a receptor competition binding assay (Scintillation Proximity); conditions: membranes from HEK293 cells expressing human A2a receptor; 0.5 nM tritiated ligand; Cheng-Prusoff; read-out: A2a Ki
T1 construct: purchased Perkin-Elmer RBHA2AM400UA; host or cells: HEK293 cells, used as a membrane preparation
Procedure, shortened: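 HEK293 membranes bearing the human receptor, pretreated with adenosine deaminase, competed against 0.5 nM tritiated pyrazolotriazolopyrimidine antagonist with compound at 3000–0.15 nM final in DPBS plus 10 mM MgCl2. SPA bead readout after 1 h at room temperature; Ki from EC50 via Cheng-Prusoff.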

T1 sequence (P29274 whole entry): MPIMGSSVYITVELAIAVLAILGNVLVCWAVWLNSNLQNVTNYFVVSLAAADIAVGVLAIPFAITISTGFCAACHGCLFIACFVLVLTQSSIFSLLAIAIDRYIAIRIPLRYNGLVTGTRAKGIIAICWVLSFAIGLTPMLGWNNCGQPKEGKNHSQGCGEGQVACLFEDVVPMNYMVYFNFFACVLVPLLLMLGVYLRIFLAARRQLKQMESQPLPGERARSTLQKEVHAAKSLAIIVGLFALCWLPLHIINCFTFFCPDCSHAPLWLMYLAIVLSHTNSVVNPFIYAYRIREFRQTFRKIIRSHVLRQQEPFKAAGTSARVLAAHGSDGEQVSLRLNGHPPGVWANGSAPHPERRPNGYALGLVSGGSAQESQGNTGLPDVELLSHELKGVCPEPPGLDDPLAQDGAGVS

**Q.** `COc1cccc2c1nc(N)n1cc(C(=O)N(C)Cc3cccc4cccnc34)nc21` [Ex-159, 5-amino-7-methoxy-N-methyl-N-(quinolin-8-ylmethyl)imidazo[1,2-c]quinazoline-2-carboxamide] was tested. Which pKi did it give?
**A.** 8.23

**Q.** How did the pKi turn out when `CN(Cc1cccc2cccnc12)C(=O)c1cn2c(N)nc3ccccc3c2n1` [Ex-160, 5-amino-N-methyl-N-(quinolin-8-ylmethyl)imidazo[1,2-c]quinazoline-2-carboxamide] was run?
**A.** 7.09

**Q.** `Nc1nc2ccccc2c2nc(C(=O)NCc3cccc4cccnc34)cn12` [Ex-161, 5-amino-N-(quinolin-8-ylmethyl)-imidazo-[1,2-c]-quinazoline-2-carboxamide] was tested. Which pKi did it give?
**A.** 7.40

**Q.** How did the pKi turn out when `CN(Cc1cccc2cccnc12)C(=O)c1cn2c(N)nc3c(F)cccc3c2n1` [Ex-162, 5-amino-7-fluoro-N-methyl-N-(quinolin-8-ylmethyl)imidazo[1,2-c]quinazoline-2-carboxamide] was run?
**A.** 7.53

**Q.** How did the pKi turn out when `Nc1nc2c(F)cccc2c2nc(C(=O)NCc3cccc4cccnc34)cn12` [Ex-163, 5-amino-7-fluoro-N-(quinolin-8-ylmethyl)imidazo[1,2-c]quinazoline-2-carboxamide] was run?
**A.** 7.89

**Q.** With `COc1ccc(CNc2nc3c(F)cccc3c3nc(C(=O)N4Cc5ccc(Br)cc5C4)cn23)c(OC)c1` [Ex-164, (5-bromoisoindolin-2-yl)(5-((2,4-dimethoxybenzyl)amino)-7-fluoroimidazo[1,2-c]quinazolin-2-yl)methanone] as the compound, how does the pKi read?
**A.** < 5.66

**Q.** `Nc1nc2ccccc2c2nc(C(=O)N3CCN(c4ccc(F)cc4F)CC3)cn12` [Ex-165, (5-aminoimidazo[1,2-c]quinazolin-2-yl)(4-(2,4-difluorophenyl)piperazin-1-yl)methanone] was tested. Which pKi did it give?
**A.** 5.00

**Q.** How did the pKi turn out when `Nc1nc2c(F)cccc2c2nc(C(=O)NCC(c3cccnc3)N3CCOCC3)cn12` (centres unmarked) [Ex-166, 5-amino-7-fluoro-N-(2-morpholino-2-(pyridin-3-yl)ethyl)imidazo[1,2-c]quinazoline-2-carboxamide] was run?
**A.** 5.85

**Q.** `COc1cccc2c1nc(N)n1cc(C(=O)N3CC(C)CC(C)C3)nc21` (centres unmarked) [Ex-167, (5-amino-7-methoxyimidazo[1,2-c]quinazolin-2-yl)(3,5-dimethylpiperidin-1-yl)methanone] was tested. Which pKi did it give?
**A.** 7.80

**Q.** With `COc1cccc2c1nc(N)n1cc(C(=O)N3CCC(F)(F)CC3)nc21` [Ex-168, (5-amino-7-methoxyimidazo[1,2-c]quinazolin-2-yl)(4,4-difluoropiperidin-1-yl)methanone] as the compound, how does the pKi read?
**A.** 7.09

**Q.** `COc1cccc2c1nc(N)n1cc(C(=O)N3CCCC(OC)C3)nc21` (centres unmarked) [Ex-169, (5-amino-7-methoxyimidazo[1,2-c]quinazolin-2-yl)(3-methoxypiperidin-1-yl)methanone] was tested. Which pKi did it give?
**A.** 7.47

**Q.** How did the pKi turn out when `COc1cccc2c1nc(N)n1cc(C(=O)N3CCCC(C)C3)nc21` (centres unmarked) [Ex-170, (5-amino-7-methoxyimidazo[1,2-c]quinazolin-2-yl)(3-methylpiperidin-1-yl)methanone] was run?
**A.** 7.94

**Q.** With `COc1cccc2c1nc(N)n1cc(C(=O)N3CCCC(F)C3)nc21` (centres unmarked) [Ex-171, (5-amino-7-methoxyimidazo[1,2-c]quinazolin-2-yl)(3-fluoropiperidin-1-yl)methanone] as the compound, how does the pKi read?
**A.** 7.70

**Q.** With `COc1cccc2c1nc(N)n1cc(C(=O)N3CCCC(F)(F)C3)nc21` [Ex-172, (5-amino-7-methoxyimidazo[1,2-c]quinazolin-2-yl)(3,3-difluoropiperidin-1-yl)methanone] as the compound, how does the pKi read?
**A.** 7.74

**Q.** How did the pKi turn out when `COc1cccc2c1nc(N)n1cc(C(=O)N3CCCC(C(F)(F)F)C3)nc21` (centres unmarked) [Ex-173, (5-amino-7-methoxyimidazo[1,2-c]quinazolin-2-yl)(3-(trifluoromethyl)piperidin-1-yl)methanone] was run?
**A.** 7.51

**Q.** With `COc1cccc2c1nc(N)n1cc(C(=O)N3CCCC4(CC4)C3)nc21` [Ex-174, (5-amino-7-methoxyimidazo[1,2-c]quinazolin-2-yl)(5-azaspiro[2.5]octan-5-yl)methanone] as the compound, how does the pKi read?
**A.** 8.64

**Q.** `COc1cccc2c1nc(N)n1cc(C(=O)N3C[C@@H](F)[C@H](F)C3)nc21` [Ex-175, (5-amino-7-methoxyimidazo[1,2-c]quinazolin-2-yl)((3R,4R)-3,4-difluoropyrrolidin-1-yl)methanone] was tested. Which pKi did it give?
**A.** 7.68
